Tests used:
Test in all cases: Kinase selectivity, DiscoverX scanMAX Kinase assay panel (% control)
Format in all cases: binding
[1] = molecular target: T1, kinases of the scanMAX Kinase assay panel (Homo sapiens, UniProt O15111); conditions: IKK-alpha; 1 uM
T1 construct: purchased DiscoverX Co. (contract measurement) scanMAX Kinase assay panel
T1 sequence (O15111 1-745): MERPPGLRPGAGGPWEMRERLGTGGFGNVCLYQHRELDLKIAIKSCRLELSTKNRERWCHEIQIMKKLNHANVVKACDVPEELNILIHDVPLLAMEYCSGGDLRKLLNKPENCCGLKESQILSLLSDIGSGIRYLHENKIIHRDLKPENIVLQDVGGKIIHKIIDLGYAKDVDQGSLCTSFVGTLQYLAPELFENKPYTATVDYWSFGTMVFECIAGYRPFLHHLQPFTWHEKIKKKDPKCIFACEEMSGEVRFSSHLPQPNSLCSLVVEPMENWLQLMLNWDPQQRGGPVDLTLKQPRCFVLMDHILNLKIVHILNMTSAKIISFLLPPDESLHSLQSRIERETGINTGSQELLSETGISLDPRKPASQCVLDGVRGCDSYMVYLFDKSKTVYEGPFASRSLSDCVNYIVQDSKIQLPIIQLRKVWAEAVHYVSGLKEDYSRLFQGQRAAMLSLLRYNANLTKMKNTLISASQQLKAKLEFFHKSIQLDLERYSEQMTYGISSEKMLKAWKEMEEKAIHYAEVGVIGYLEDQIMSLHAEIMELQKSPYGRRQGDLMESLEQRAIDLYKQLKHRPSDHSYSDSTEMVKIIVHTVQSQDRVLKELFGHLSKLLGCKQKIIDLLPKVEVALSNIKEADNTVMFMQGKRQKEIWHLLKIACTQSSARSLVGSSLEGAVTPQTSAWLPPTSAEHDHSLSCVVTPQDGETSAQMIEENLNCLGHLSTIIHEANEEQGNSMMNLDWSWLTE
Summary of the method: (§1)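 A 1 uM DMSO solution of compound was applied across the panel kinases, and results were expressed as % control relative to DMSO (100%) and a positive control (0%).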

[2] = molecular target: T2, kinases of the scanMAX Kinase assay panel (Homo sapiens, UniProt Q00536); conditions: PCTK1; 1 uM
T2 construct: purchased DiscoverX Co. (contract measurement) scanMAX Kinase assay panel
T2 sequence (Q00536 whole entry): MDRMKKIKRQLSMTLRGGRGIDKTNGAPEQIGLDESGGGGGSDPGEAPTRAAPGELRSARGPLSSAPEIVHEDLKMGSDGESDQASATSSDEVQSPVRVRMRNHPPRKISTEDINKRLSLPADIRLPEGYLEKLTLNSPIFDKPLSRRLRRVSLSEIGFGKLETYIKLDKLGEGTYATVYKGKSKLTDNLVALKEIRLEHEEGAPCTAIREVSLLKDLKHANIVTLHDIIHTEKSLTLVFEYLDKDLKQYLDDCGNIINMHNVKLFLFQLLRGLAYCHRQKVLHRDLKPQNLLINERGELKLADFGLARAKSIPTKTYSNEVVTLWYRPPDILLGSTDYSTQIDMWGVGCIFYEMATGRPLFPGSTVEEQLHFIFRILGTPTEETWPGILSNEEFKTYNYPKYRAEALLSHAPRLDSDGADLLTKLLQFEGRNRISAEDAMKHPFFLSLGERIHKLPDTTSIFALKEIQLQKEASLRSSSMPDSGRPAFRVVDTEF
Summary of the method: as §1

[3] = molecular target: T3, kinases of the scanMAX Kinase assay panel (Homo sapiens, UniProt Q13873); conditions: BMPR2; 1 uM
T3 construct: purchased DiscoverX Co. (contract measurement) scanMAX Kinase assay panel
T3 sequence (Q13873 27-1038): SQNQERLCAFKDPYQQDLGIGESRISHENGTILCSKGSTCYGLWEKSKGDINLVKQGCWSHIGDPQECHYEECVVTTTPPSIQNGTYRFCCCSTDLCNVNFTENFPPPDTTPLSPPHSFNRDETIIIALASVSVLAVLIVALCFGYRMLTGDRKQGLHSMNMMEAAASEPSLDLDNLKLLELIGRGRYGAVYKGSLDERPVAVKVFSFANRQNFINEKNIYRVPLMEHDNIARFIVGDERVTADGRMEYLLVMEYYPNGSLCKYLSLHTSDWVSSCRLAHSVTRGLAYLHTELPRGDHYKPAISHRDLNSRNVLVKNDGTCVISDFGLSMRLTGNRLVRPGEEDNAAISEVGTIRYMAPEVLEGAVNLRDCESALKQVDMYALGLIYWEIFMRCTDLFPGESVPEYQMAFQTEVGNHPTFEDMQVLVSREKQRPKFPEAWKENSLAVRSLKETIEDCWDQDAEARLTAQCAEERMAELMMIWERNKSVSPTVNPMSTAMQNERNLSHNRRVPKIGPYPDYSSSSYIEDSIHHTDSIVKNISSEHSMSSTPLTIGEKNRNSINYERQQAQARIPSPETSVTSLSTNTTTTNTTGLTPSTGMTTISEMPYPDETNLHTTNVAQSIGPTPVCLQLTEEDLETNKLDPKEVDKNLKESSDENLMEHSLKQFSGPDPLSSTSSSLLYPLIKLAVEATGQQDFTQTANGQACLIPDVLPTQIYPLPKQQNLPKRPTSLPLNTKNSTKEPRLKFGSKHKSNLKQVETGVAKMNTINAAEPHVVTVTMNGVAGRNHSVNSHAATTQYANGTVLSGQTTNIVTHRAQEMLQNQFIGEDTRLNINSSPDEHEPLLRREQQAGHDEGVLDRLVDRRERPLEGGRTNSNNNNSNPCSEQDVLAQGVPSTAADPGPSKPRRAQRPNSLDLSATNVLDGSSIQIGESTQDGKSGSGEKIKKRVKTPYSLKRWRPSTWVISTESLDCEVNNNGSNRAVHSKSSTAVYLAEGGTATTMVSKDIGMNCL
Summary of the method: as §1

[4] = molecular target: T4, kinases of the scanMAX Kinase assay panel (Homo sapiens, UniProt Q9NYL2); conditions: kinase ZAK; 1 uM in DMSO
T4 construct: purchased DiscoverX Co. (contract measurement) scanMAX Kinase assay panel
T4 sequence (Q9NYL2 whole entry): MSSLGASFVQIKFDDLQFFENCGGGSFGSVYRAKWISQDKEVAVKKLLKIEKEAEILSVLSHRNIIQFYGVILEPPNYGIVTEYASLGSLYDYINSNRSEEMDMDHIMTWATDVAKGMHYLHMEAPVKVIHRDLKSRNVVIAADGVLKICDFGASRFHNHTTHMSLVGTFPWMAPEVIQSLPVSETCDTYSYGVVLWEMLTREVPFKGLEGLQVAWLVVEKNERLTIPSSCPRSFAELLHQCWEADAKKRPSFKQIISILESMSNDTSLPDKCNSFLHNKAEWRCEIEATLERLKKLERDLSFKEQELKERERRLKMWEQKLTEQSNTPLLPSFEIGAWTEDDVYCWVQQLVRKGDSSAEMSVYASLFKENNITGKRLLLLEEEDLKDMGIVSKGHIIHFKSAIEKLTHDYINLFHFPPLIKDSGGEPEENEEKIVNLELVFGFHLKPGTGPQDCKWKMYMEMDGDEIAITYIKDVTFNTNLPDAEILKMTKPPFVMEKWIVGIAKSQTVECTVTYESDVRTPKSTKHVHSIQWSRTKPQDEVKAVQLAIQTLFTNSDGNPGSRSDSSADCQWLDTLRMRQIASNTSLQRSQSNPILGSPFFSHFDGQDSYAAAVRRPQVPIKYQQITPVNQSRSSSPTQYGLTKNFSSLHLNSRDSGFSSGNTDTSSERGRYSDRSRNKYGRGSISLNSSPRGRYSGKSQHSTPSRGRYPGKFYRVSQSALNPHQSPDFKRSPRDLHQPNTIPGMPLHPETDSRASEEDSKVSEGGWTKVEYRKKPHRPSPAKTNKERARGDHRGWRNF
Summary of the method: as §1

Row | SMILES | remaining binding at 1 µM [1] [%] | remaining binding at 1 µM [2] [%] | remaining binding at 1 µM [3] [%] | remaining binding at 1 µM [4] [%]
1 | CCNc1nc(Nc2ccc(C(=O)N3CCC(N4CCOCC4)CC3)cc2OC)nc2[nH]cc(C(F)(F)F)c12 [Example 104, (4-((4-(ethylamino)-5-(trifluoromethyl)-7H-pyrrolo[2,3-d]pyrimidine-2-yl)amino)-3-methoxyphenyl)(4-morpholinopiperidine-1-yl)methanone] | 93 | 100 | 100 | 100
2 | CC1(Nc2nc(Nc3cnn([C@H]4CCN(C5COC5)C[C@@H]4F)c3Cl)nc3[nH]cc(C#N)c23)CC1 [Example 52, 2-((5-chloro-1-((3S,4S)-3-fluoro-1-(oxetane-3-yl)piperidine-4-yl)-1H-pyrazole-4-yl)amino)((1-methylcyclopropyl)amino)-7H-pyrrolo[2,3-d]pyrimidine-5-carbonitrile] | 3.4 | 100 | 0.65 | 88
3 | CNc1nc(Nc2ccc(C(=O)N3CCOCC3)cc2OC)nc2[nH]cc(C#N)c12 [Example 1, 2-((2-methoxy-4-(morpholine-4-carbonyl)phenyl)amino)-4-(methylamino)-7H-pyrrolo[2,3-d]pyrimidine-5-carbonitrile] | 57 | 77 | 79 | 100
